Results on one compound are retold here after patent US9204640B2, “2-acyloxy-pyrrolin-4-ones” (BAYER INTELLECTUAL PROPERTY GMBH, priority 2011, dated 2015).

Molecules are shown by their SMILES.

Holding throughout (assay type): in vivo
In one assay the test system is Spodoptera frugiperda. The assay can be described thus: Spodoptera frugiperda test (SPODFR spray treatment). As to conditions: Spodoptera frugiperda, 168 h; 500 g/ha; 7dat. As to the method: Spodoptera Frugiperda Test (SPODFR Spray Treatment) [table] To produce a suitable preparation of active compound, 1 part by weight of active compound is mixed with the stated amount of solvent and emulsifier, and the concentrate is diluted with emulsifier-containing water to the desired concentration. Discs of corn leaves (Zea mays) are sprayed with an active compound preparation of the desired concentration and, after drying, populated with caterpillars of the armyworm (Spodoptera frugiperda). After 7 days, the effect in % is determined. 100% means that all caterpillars have been killed; 0% means that none of the caterpillars have been killed. Spodoptera Frugiperda Test (SPODFR Spray Treatment) To produce a suitable preparation of active compound, 1 part by weight of active compound is mixed with the stated amount of solvent and emulsifier, and the concentrate is diluted with emulsifier-containing water to the desired concentration. Discs of corn leaves (Zea mays) are sprayed with an active compound preparation of the desired concentration and, after drying, populated with caterpillars of the armyworm (Spodoptera frugiperda). After the desired period of time, the activity in % is determined. 100% means that all caterpillars have been killed; 0% means that none of the caterpillars have been killed.

The subject of a further assay is Bemisia tabaci. The experiment in a line: Bemisia tabaci spray test (BEMITA). As to conditions: Bemisia tabaci, 168 h, 7dat. As to the method: Bemisia Tabaci-Spray Test ([…]) To produce a suitable preparation of active compound, 1 part by weight of active compound is mixed with the stated amount of solvent and emulsifier, and the concentrate is diluted with emulsifier-containing water to the desired concentration. Discs of cotton leaves (Gossypium hirsutum) which are infested by all stages of the whitefly (Bemisia tabaci) are sprayed with an active compound preparation of the desired concentration. After the desired period of time, the activity in % is determined. 100% means that all the whiteflies have been killed; 0% means that none of the whiteflies have been killed.

In another assay the test system is Liriomyza trifolii. The assay can be described thus: Liriomyza trifolii spray test (LIRITR). As to conditions: Liriomyza trifolii, 168 h, 7dat, read-out: % Activity LIRITRI. As to the method: Liriomyza Trifolii-Spray Test ([…]) To produce a suitable preparation of active compound, 1 part by weight of active compound is mixed with the stated amount of solvent and emulsifier, and the concentrate is diluted with emulsifier-containing water to the desired concentration. If the addition of ammonium salts or/and penetrants is required, these are in each case added in a concentration of 1000 ppm to the solution of the preparations. Discs of bean leaves (Phaseolus vulgaris) which are infested by all stages of the leaf-mining fly (Liriomyza trifolii) are sprayed with an active compound preparation of the desired concentration. After the desired period of time, the activity in % is determined. 100% means that all of the leaf-mining flies have been killed; 0% means that none of the leaf-mining flies have been killed.

The next assay deals with Tetranychus urticae. The experiment in a line: Tetranychus test (TETRUR spray treatment; OP-resistant in Example 10). Particulars: Tetranychus urticae, 120 h; 20 g/ha; 5dat; OP-resistant. The procedure: Tetranychus Test (TETRUR Spray Treatment)
To produce a suitable preparation of active compound, 1 part by weight of active compound is mixed with the stated amount of solvent and emulsifier, and the concentrate is diluted with emulsifier-containing water to the desired concentration. Discs of bean leaves (Phaseolus vulgaris) which are infested by all stages of the greenhouse red spider mite (Tetranychus urticae) are sprayed with an active compound preparation of the desired concentration.
After 5 days, the effect in % is determined. 100% means that all of the spider mites have been killed; 0% means that none of the spider mites have been killed.
Tetranychus Test, OP-Resistant (TETRUR Spray Treatment)
To produce a suitable preparation of active compound, 1 part by weight of active compound is mixed with the stated amount of solvent and emulsifier, and the concentrate is diluted with emulsifier-containing water to the desired concentration.
Discs of bean leaves (Phaseolus vulgaris) which are infested by all stages of the greenhouse red spider mite (Tetranychus urticae) are sprayed with an active compound preparation of the desired concentration.
After the desired period of time, the activity in % is determined. 100% means that all of the spider mites have been killed; 0% means that none of the spider mites have been killed.

For `CCOC(=O)OC1=C(c2c(C)cc(C)cc2C)C(=O)NC12CCC(COC)CC2` (stereo not shown) [I-1-c-16 known from WO 07/048545], the inhibition at 500 g/ha with Spodoptera frugiperda worked out at 67%. In addition, the values for the inhibition at 20 g/ha in the assay with Bemisia tabaci, in the assay on Liriomyza trifolii and in the assay with Tetranychus urticae were 27%, 0% and 0%, respectively.
